In patent publication US10738028B2, “Spiro three-membered ring, spiro five-membered ring peptide deformylase inhibitor and use thereof in antibacteria and anti-tumor” (priority 2016, dated 2020):

Tests used:
Type in all cases: cell-based
[1] = test system: Streptococcus pneoumoniae (SPN); assay: MIC, two-fold agar dilution (CLSI), clinical isolates
Outline: (§1)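 CLSI two-fold agar dilution; MIC of test samples read per tested strain.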

[2] = test system: Escherichia coli (including ESBLs, non-ESBLs); assay: as above
Outline: as §1

[3] = test system: methicillin-sensitive Staphylococcus aureus (MSSA); assay: as above
Outline: as §1

[4] = test system: Moraxella catarrhalis (BCA); assay: as above
Outline: as §1

[5] = test system: methicillin-resistant Staphylococcus aureus (MRSA); assay: as above
Outline: as §1

[6] = test system: Enterococcus faecium (EFM); assay: as above
Outline: as §1

[7] = test system: Enterococcus faecalis (EFA); assay: as above
Outline: as §1

[8] = test system: methicillin-sensitive Staphylococcus epidermidis (MSSE); assay: as above
Outline: as §1

[9] = test system: methicillin-resistant Staphylococcus epidermidis (MRSE); assay: as above
Outline: as §1

[10] = test system: HCT-116 colorectal cancer cell line; assay: CCK-8 proliferation inhibition; conditions: Homo sapiens, HCT-116, 72 h, concentration of 30 μM; 72 hours; CCK-8; read-out: HCT116 inhibition rate/%
Outline: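 HCT-116 cells, seeded at 2000 cells/well in McCoy's 5A with 10% newborn bovine serum, were cultured overnight at 37° C., 5% CO2, then exposed to compound dilutions in medium for 72 hours. Viability was read with 1:10 diluted CCK-8; controls received 1‰ DMSO.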

CCCC[C@H](CC(=O)NO)C(=O)N1CC2(CC2)C[C@H]1C(=O)Nc1ncccc1F [Example 49, (S)—N-(3-fluoropyridin-2-yl)-5-((R)-2-(2-(hydroxyamino)-2-oxoethyl)hexanoyl)-5-azaspiro[2.4]heptane-6-amide]
Anti-bacterial activity (MIC), strain SPN 16-2 ([1]; clinical isolate SPN 16-2): 4 mg/L
Anti-bacterial activity (MIC), strain SPN 16-4 ([1]; clinical isolate SPN 16-4): 4 mg/L
Anti-bacterial activity (MIC), strain ECO+ 15-1 ([2]; clinical isolate ECO+ 15-1): > 32 mg/L
Anti-bacterial activity (MIC), strain ECO+ 15-2 ([2]; clinical isolate ECO+ 15-2): > 32 mg/L
Anti-bacterial activity (MIC), strain ECO+ 15-3 ([2]; clinical isolate ECO+ 15-3): > 32 mg/L
Anti-bacterial activity (MIC), strain ECO+ 15-4 ([2]; clinical isolate ECO+ 15-4): > 32 mg/L
Anti-bacterial activity (MIC), strain ECO− 15-1 ([2]; clinical isolate ECO− 15-1): > 32 mg/L
Anti-bacterial activity (MIC), strain ECO− 15-2 ([2]; clinical isolate ECO− 15-2): > 32 mg/L
Anti-bacterial activity (MIC), strain ECO− 15-3 ([2]; clinical isolate ECO− 15-3): > 32 mg/L
Anti-bacterial activity (MIC), strain ECO− 15-4 ([2]; clinical isolate ECO− 15-4): > 32 mg/L
Anti-bacterial activity (MIC), strain MSSA 15-3 ([3]; clinical isolate MSSA 15-3): 16 mg/L
Anti-bacterial activity (MIC), strain MSSA 15-4 ([3]; clinical isolate MSSA 15-4): 16 mg/L
Anti-bacterial activity (MIC), strain MSSA 15-5 ([3]; clinical isolate MSSA 15-5): > 32 mg/L
Anti-bacterial activity (MIC), strain MSSA 15-6 ([3]; clinical isolate MSSA 15-6): > 32 mg/L
Anti-bacterial activity (MIC), strain BCA 14-1 ([4]; clinical isolate BCA 14-1): > 32 mg/L
Anti-bacterial activity (MIC), strain BCA 14-4 ([4]; clinical isolate BCA 14-4): > 32 mg/L
Anti-bacterial activity (MIC), strain BCA 14-5 ([4]; clinical isolate BCA 14-5): 4 mg/L
Anti-bacterial activity (MIC), strain BCA 14-6 ([4]; clinical isolate BCA 14-6): > 32 mg/L
Anti-bacterial activity (MIC), strain BCA 14-7 ([4]; clinical isolate BCA 14-7): > 32 mg/L
Anti-bacterial activity (MIC), strain BCA 14-8 ([4]; clinical isolate BCA 14-8): > 32 mg/L
Anti-bacterial activity (MIC), strain BCA 14-10 ([4]; clinical isolate BCA 14-10): > 32 mg/L
Anti-bacterial activity (MIC), strain MRSA 15-1 ([5]; clinical isolate MRSA 15-1): 8 mg/L
Anti-bacterial activity (MIC), strain MRSA 15-3 ([5]; clinical isolate MRSA 15-3): 16 mg/L
Anti-bacterial activity (MIC), strain MRSA 15-4 ([5]; clinical isolate MRSA 15-4): 16 mg/L
Anti-bacterial activity (MIC), strain EFM 15-1 ([6]; clinical isolate EFM 15-1): > 32 mg/L
Anti-bacterial activity (MIC), strain EFM 15-2 ([6]; clinical isolate EFM 15-2): > 32 mg/L
Anti-bacterial activity (MIC), strain EFM 15-3 ([6]; clinical isolate EFM 15-3): > 32 mg/L
Anti-bacterial activity (MIC), strain EFM 15-4 ([6]; clinical isolate EFM 15-4): > 32 mg/L
Anti-bacterial activity (MIC), strain EFM 15-5 ([6]; clinical isolate EFM 15-5): 2 mg/L
Anti-bacterial activity (MIC), strain EFM 15-6 ([6]; clinical isolate EFM 15-6): 2 mg/L
Anti-bacterial activity (MIC), strain EFA 15-1 ([7]; clinical isolate EFA 15-1): > 32 mg/L
Anti-bacterial activity (MIC), strain EFA 15-2 ([7]; clinical isolate EFA 15-2): > 32 mg/L
Anti-bacterial activity (MIC), strain EFA 15-3 ([7]; clinical isolate EFA 15-3): > 32 mg/L
Anti-bacterial activity (MIC), strain EFA 15-4 ([7]; clinical isolate EFA 15-4): > 32 mg/L
Anti-bacterial activity (MIC), strain EFA 15-5 ([7]; clinical isolate EFA 15-5): > 32 mg/L
Anti-bacterial activity (MIC), strain EFA 15-6 ([7]; clinical isolate EFA 15-6): > 32 mg/L
Anti-bacterial activity (MIC), strain EFA 15-9 ([7]; clinical isolate EFA 15-9): > 32 mg/L
Anti-bacterial activity (MIC), strain MSSE 15-3 ([8]; clinical isolate MSSE 15-3): > 32 mg/L
Anti-bacterial activity (MIC), strain MSSE 15-4 ([8]; clinical isolate MSSE 15-4): > 32 mg/L
Anti-bacterial activity (MIC), strain MSSE 15-5 ([8]; clinical isolate MSSE 15-5): > 32 mg/L
Anti-bacterial activity (MIC), strain MSSE 15-6 ([8]; clinical isolate MSSE 15-6): > 32 mg/L
Anti-bacterial activity (MIC), strain MRSE 15-1 ([9]; clinical isolate MRSE 15-1): > 32 mg/L
Anti-bacterial activity (MIC), strain MRSE 15-2 ([9]; clinical isolate MRSE 15-2): > 32 mg/L
Anti-bacterial activity (MIC), strain MRSE 15-3 ([9]; clinical isolate MRSE 15-3): > 32 mg/L
Anti-bacterial activity (MIC), strain MRSE 15-7 ([9]; clinical isolate MRSE 15-7): > 32 mg/L
inhibition at 30 µM [10]: 8%
